This is an account of results in publication PMC11178787, “Development of a natural product optimization strategy for inhibitors against MraY, a promising antibacterial target” (Nature Communications, 2024).

Assay in all cases: microbe, parasite or virus in culture
Experiment [1] relates to T1, Staphylococcus aureus #2933.
T1 construct: #2933
Also noted: CLSI broth microdilution MIC in MHB-II. The settings on record: Staphylococcus aureus, 18 h, read-out: MIC. In outline:
(§1)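 Minimum inhibitory concentrations come from a CLSI-recommended broth microdilution method using MHB-II. Bacteria at 5 × 10^5 cfu/mL were exposed to 2-fold serial compound dilutions (final DMSO under 1%) for 18 h at 37 °C. Reported values reflect the highest of three replicate trials or, for certain compounds, one trial.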

Experiment [2] concerns T2, Staphylococcus aureus #2071.
T2 construct: #2071
Also noted: CLSI broth microdilution MIC in MHB-II. The note with it: Staphylococcus aureus, 18 h, read-out: MIC. In outline: as §1

Another experiment concerns T3, Enterococcus faecalis 28.
T3 construct: 28
The arrangement: CLSI broth microdilution MIC in MHB-II. The settings on record: Enterococcus faecalis, 28, 18 h, read-out: MIC. In outline: as §1

Experiment [3] has as its system T4, Staphylococcus aureus #2931.
T4 construct: #2931
Also noted: CLSI broth microdilution MIC in MHB-II. The settings on record: Staphylococcus aureus, 18 h, read-out: MIC. The gist of the method:
as §1

Experiment [4] concerns T5, Staphylococcus aureus #2334.
T5 construct: #2334
The arrangement: CLSI broth microdilution MIC in MHB-II. The note with it: Staphylococcus aureus, 18 h, read-out: MIC. The gist of the method:
as §1

In experiment [5] the test system is T6, Staphylococcus aureus #1958.
T6 construct: #1958
The arrangement: CLSI broth microdilution MIC in MHB-II. The note with it: Staphylococcus aureus, 18 h, read-out: MIC. In outline: as §1

The test system of experiment [6] is T7, Staphylococcus aureus #2310.
T7 construct: #2310
The arrangement: CLSI broth microdilution MIC in MHB-II. The settings on record: Staphylococcus aureus, 18 h, read-out: MIC. In outline: as §1

Another experiment deals with Enterococcus faecium 3. The arrangement: CLSI broth microdilution MIC in MHB-II. The note with it: Enterococcus faecium, 3, 18 h, read-out: MIC. The gist of the method: as §1
The subject of the next experiment is T8, Enterococcus faecalis 23.
T8 construct: 23
The arrangement: CLSI broth microdilution MIC in MHB-II. The note with it: Enterococcus faecalis, 23, 18 h, read-out: MIC. In outline: as §1

Experiment [7] concerns T9, Staphylococcus aureus #2110.
T9 construct: #2110
The arrangement: CLSI broth microdilution MIC in MHB-II. The settings on record: Staphylococcus aureus, 18 h, read-out: MIC. The gist of the method: as §1

The test system of another experiment is T10, Enterococcus faecalis 25.
T10 construct: 25
Also noted: CLSI broth microdilution MIC in MHB-II. The note with it: Enterococcus faecalis, 25, 18 h, read-out: MIC. The gist of the method: as §1

Experiment [8] has as its system T11, Staphylococcus aureus #2932.
T11 construct: #2932
Also noted: CLSI broth microdilution MIC in MHB-II. The settings on record: Staphylococcus aureus, 18 h, read-out: MIC. The gist of the method:
as §1

The subject of the next experiment is T12, Enterococcus faecalis 24.
T12 construct: 24
Also noted: CLSI broth microdilution MIC in MHB-II. The settings on record: Enterococcus faecalis, 24, 18 h, read-out: MIC. The gist of the method:
as §1

The subject of experiment [9] is T13, Staphylococcus aureus #2934.
T13 construct: #2934
The arrangement: CLSI broth microdilution MIC in MHB-II. The note with it: Staphylococcus aureus, 18 h, read-out: MIC. The gist of the method: as §1

In another experiment the test system is T14, Enterococcus faecalis 30.
T14 construct: 30
The arrangement: CLSI broth microdilution MIC in MHB-II. The note with it: Enterococcus faecalis, 30, 18 h, read-out: MIC. In outline: as §1

A further experiment concerns Enterococcus faecium 7. The arrangement: CLSI broth microdilution MIC in MHB-II. The note with it: Enterococcus faecium, 7, 18 h, read-out: MIC. In outline: as §1
A further experiment relates to T15, P. aeruginosa ATCC 27853.
T15 construct: ATCC 27853
The settings on record: Pseudomonas aeruginosa, ATCC27853. As to the method:
(§2) MICs were determined by a microdilution broth method as recommended by the CLSI with MHB-II. For MICs of stable analogues, a 2-fold dilution of each compound was prepared in DMSO at 100-fold of the final concentration. The strains were inoculated with 5 × 10^5 cfu/mL in 96-well plates (each 100 μL/well), and 1 μL of DMSO solutions of the samples were added (contained less than 1% DMSO). The plates were incubated at 37 °C for 18 h and then MICs were determined. MICs of stable analogues in Table 1 were the highest value in three trials. MICs in Supplementary Table 1 were determined in one trial.  Fig. 2 Results of biological evaluations of hydrazone library. a General structures of hydrazine fragment moiety are shown. Each hydrazine class are represented by different colours (green; BZ, cyan; PA, grey; AC, yellow; AA, orange; LA). b–h MraY inhibitory activity and antibacterial activity of the hydrazone library. The bar graphs show the relative enzyme activity with DMSO as 100% when the compound is treated at given concentration (b,c; TUN at 100 nM, d,e; MRY at 10 nM, f.g; MRD at 100 nM, h; CAP at 1000 nM. n = 1), with the lower bars indicating higher inhibitory activity. The colour of the bars corresponds to Fig. 2a. […] Data of control compounds (van: vancomycin, col: colistin) are shown left column in each panel. E. faecium ATCC 35667, S. aureus ATCC 29213, P. aeruginosa ATCC 27853, K. pneumoniae ATCC 13883, E. cloacae ATCC 13047, A. baumannii ATCC 19606, E. coli ATCC 25922.

A further experiment concerns T16, E. cloacae ATCC 13047.
T16 construct: ATCC 13047
The note with it: Enterobacter cloacae, ATCC13047. As to the method: as §2

A further experiment concerns T17, K. pneumoniae ATCC 13883.
T17 construct: ATCC 13883
The note with it: Klebsiella pneumoniae, ATCC13883. As to the method:
as §2

In the next experiment the test system is T18, A. baumannii ATCC 19606.
T18 construct: ATCC 19606
The settings on record: Acinetobacter baumannii, ATCC19606. As to the method: as §2

In brackets after ≈: the same amount, converted by molar mass. Bounds are passed on as bounds.

In the case of `CC1(C)S[C@@H]2[C@H](NC(=O)[C@H](N)c3ccccc3)C(=O)N2[C@H]1C(=O)O` [ampicillin], the MIC was determined as 32 µg/mL (≈ 91.6 µM) in [1]; 32 µg/mL (≈ 91.6 µM) in experiment [2]; 1 µg/mL (≈ 2.86 µM) in the experiment with Enterococcus faecalis 28; 32 µg/mL (≈ 91.6 µM) in experiment [3]; 16 µg/mL (≈ 45.8 µM) in experiment [4]; 32 µg/mL (≈ 91.6 µM) in [5]. The MIC in experiment [6] is 32 µg/mL (≈ 91.6 µM); in the experiment on Enterococcus faecium 3, above 128 µg/mL; in the experiment on Enterococcus faecalis 23, 1 µg/mL (≈ 2.86 µM); in [7], 16 µg/mL (≈ 45.8 µM); with Enterococcus faecalis 25 it was 1 µg/mL (≈ 2.86 µM); in [8] it was 32 µg/mL (≈ 91.6 µM). Also, the MIC is 0.5 µg/mL (≈ 1.43 µM) in the experiment on Enterococcus faecalis 24; 16 µg/mL (≈ 45.8 µM) in experiment [9]; 0.5 µg/mL (≈ 1.43 µM) with Enterococcus faecalis 30; 0.5 µg/mL (≈ 1.43 µM) in the experiment on Enterococcus faecium 7; above 50 µM in the experiment on P. aeruginosa ATCC 27853; above 50 µM in the experiment on E. cloacae ATCC 13047. Also, the MIC in the experiment with K. pneumoniae ATCC 13883 is above 50 µM; in the experiment with A. baumannii ATCC 19606 it was 50 µM (≈ 17.5 µg/mL).
Turning to `CN[C@H](CC(C)C)C(=O)N[C@H]1C(=O)N[C@@H](CC(N)=O)C(=O)N[C@H]2C(=O)N[C@H]3C(=O)N[C@H](C(=O)N[C@H](C(=O)O)c4cc(O)cc(O)c4-c4cc3ccc4O)[C@H](O)c3ccc(c(Cl)c3)Oc3cc2cc(c3O[C@@H]2O[C@H](CO)[C@@H](O)[C@H](O)[C@H]2O[C@H]2C[C@](C)(N)[C@H](O)[C@H](C)O2)Oc2ccc(cc2Cl)[C@H]1O` [vancomycin], the MIC stood at 1 µg/mL (≈ 0.69 µM) in experiment [1]; 1 µg/mL (≈ 0.69 µM) in the experiment with Enterococcus faecalis 28; 1 µg/mL (≈ 0.69 µM) in experiment [3]; 2 µg/mL (≈ 1.38 µM) in experiment [4]; 1 µg/mL (≈ 0.69 µM) in [5]; 2 µg/mL (≈ 1.38 µM) in [6]. Further, the MIC with Enterococcus faecium 3 came to 1 µg/mL (≈ 0.69 µM); in the experiment on Enterococcus faecalis 23, 1 µg/mL (≈ 0.69 µM); in [7] it was 2 µg/mL (≈ 1.38 µM); with Enterococcus faecalis 25, 1 µg/mL (≈ 0.69 µM); in experiment [8] it was 2 µg/mL (≈ 1.38 µM); in the experiment on Enterococcus faecalis 24, 1 µg/mL (≈ 0.69 µM). The MIC in experiment [9] was 1 µg/mL (≈ 0.69 µM); in the experiment on Enterococcus faecalis 30 it was 1 µg/mL (≈ 0.69 µM); with Enterococcus faecium 7, 0.5 µg/mL (≈ 0.345 µM); with P. aeruginosa ATCC 27853, above 50 µM; in the experiment on E. cloacae ATCC 13047, above 50 µM; with K. pneumoniae ATCC 13883, above 50 µM. In the experiment with A. baumannii ATCC 19606, the MIC worked out at 50 µM (≈ 72.5 µg/mL).
